Measured values taken from US20060293374A1, “Substituted isothiazolones” (priority 2005, published 2006).

Experiments:
Neutrophil LTB4 = Neutrophil LTB4 assay (calcium ionophore challenge, EIA); assay type: cell-based; conditions: test concentration of 5 μM, human neutrophils, calcium ionophore 1 μM; for inhibition at 5 µM: Neutrophil, read-out: LTB4 percent inhibition
Description: Neutrophils purified from human blood were resuspended in HBSS buffer containing calcium and magnesium to a cell density of 1×10^6/mL. Purified neutrophils were then incubated with test compounds at a test concentration of 5 μM for 15 min at 37° C. Following incubation, the cells were challenged with calcium ionophore (1 μM final) for 15 minutes at 37° C. Negative control wells were incubated with equal volume of vehicle. The reaction was stopped by transferring the plate to ice for 5 minutes. The plate was centrifuged at 1500 RPM for 5 min at 4° C. LTB4 was calculated in cell free supernatants by EIA (Assay Design Inc).

[1] = tested on: TXB2 Released by Human Platelets; assay: Ionophore and arachidonic acid induced TXB2 released by human platelets (EIA); assay type: cell-based; conditions: human platelet-rich plasma; for IC50: challenge with calcium ionophore (10 μM) or arachidonic acid (50 μM); for inhibition at 1 µM: test concentration of 1 μM, calcium ionophore or arachidonic acid challenge, read-out: TXB2 percent inhibition
Description: Ionophore and Arachidonic Acid Induced TXB2 Released by Human Platelets
The plate was incubated for 15 minutes at 37° C. Following incubation, platelets were challenged with calcium ionophore (final 10 μM) or arachidonic acid (AA) (final 50 μM) and the plate was further incubated at 37° C. for 15 min. The plate was transferred to an ice bed for 5 min in order to stop the reaction. Supernatants were assayed for TXB2 production by EIA (Assay Design Inc) after diluting with assay buffer (Assay Design Inc).

Compound | inhibition at 5 µM (Neutrophil LTB4) [%] | IC50 [1] [nM] | inhibition at 1 µM [1] [%] | LTB4 percent inhibition (Neutrophil LTB4) [%]
O=c1ccsn1Cc1sc2ccccc2c1Cl [Cpd 8, 2-(3-chloro-benzo[b]thiophen-2-ylmethyl)-isothiazol-3-one] | 74 | 1400 |  | 
O=c1ccsn1Cc1ccc(-c2csnn2)cc1 [Cpd 22, 2-(4-[1,2,3]thiadiazol-4-yl-benzyl)-isothiazol-3-one] | 50 | 1200 |  | 
CC(=O)c1ccc(Cn2sccc2=O)cc1 [Cpd 25, 2-(4-acetylbenzyl)-isothiazol-3-one] | 54 | 1000 |  | 
O=CC#Cc1cccc(Cn2sc(Cl)cc2=O)c1 [Cpd 60, [3-(5-chloro-3-oxo-3H-isothiazol-2-ylmethyl)-phenyl]-propynal] | 100 |  | 72 | 
O=c1cc(Cl)sn1Cc1csc2ccccc12 [Cpd 11, 2-benzo[b]thiophen-3-ylmethyl-5-chloro-isothiazol-3-one] | 100 |  | 68 | 
O=c1cc(Cl)sn1Cc1cccc2ccccc12 [Cpd 1, 5-chloro-2-naphthalen-1-ylmethyl-isothiazol-3-one] | 99 | 3000 |  | 
C=Cc1ccc(Cn2sc(Cl)cc2=O)cc1 [Cpd 27, 5-chloro-2-(4-vinyl-benzyl)-isothiazol-3-one] | 100 | 800 |  | 
O=Cc1cccc(Cn2sc(Cl)cc2=O)c1 [Cpd 59, 5-chloro-2-(3-formylbenzyl)-isothiazol-3-one] | 96 | 600 |  | 
O=c1[nH]sc(Cl)c1Cc1csc(-c2cccs2)n1 [Cpd 62, 5-chloro-(2-thiophen-2-yl-thiazol-4-ylmethyl)-isothiazol-3-one] | 96 | 800 |  | 
Cc1nc(-c2ccc(Cn3sc(Cl)cc3=O)cc2)cs1 [Cpd 31, 5-chloro-2-[4-(2-methyl-thiazol-4-yl)-benzyl]-isothiazol-3-one] | 88 |  | 54 | 
O=c1c(Cl)c(Cl)sn1Cc1csc2ccc(Cl)cc12 [Cpd 18, 4,5-dichloro-2-(5-chloro-benzo[b]thiophen-3-ylmethyl)-isothiazol-3-one] | 71 | 280 |  | 
CC(c1ccc(S(C)(=O)=O)cc1)n1sc(Cl)c(Cl)c1=O (stereo not drawn) [Cpd 30, 4,5-dichloro-2-[1-(4-methanesulfonyl-phenyl)-ethyl]-isothiazol-3-one] | 100 | 200 |  | 
O=c1ccsn1Cc1nc(-c2cccs2)sc1Cl [Cpd 63, 2-(5-chloro-2-thiophen-2-yl-thiazol-4-ylmethyl)-isothiazol-3-one] | 86 |  | 42 | 
CC(c1cccc2ccccc12)n1sc(Cl)cc1=O (stereo not drawn) [Cpd 5, 5-chloro-2-(1-naphthalen-1-yl-ethyl)-isothiazol-3-one] | 100 | 600 |  | 
O=c1ccsn1Cc1ccc2c(c1)CCO2 [Cpd 17, 2-(2,3-dihydro-benzofuran-5-ylmethyl)-isothiazol-3-one] | 39 | 5800 |  | 
O=c1ccsn1Cc1ccc2ccccc2c1 [Cpd 13, 2-naphthalen-2-ylmethyl-isothiazol-3-one] | 78 | 1300 |  | 
O=c1cc(Cl)sn1Cc1cccc(-c2csnn2)c1 [Cpd 32, 5-chloro-2-(3-[1,2,3]thiadiazol-4-ylbenzyl)-isothiazol-3-one] | 100 | 600 |  | 
O=c1c(Cl)c(Cl)sn1Cc1csc2ccccc12 [Cpd 10, 2-benzo[b]thiophen-3-ylmethyl-4,5-dichloro-isothiazol-3-one] | 100 |  | 84 | 
COC(=O)c1ccc(Cn2sc(Cl)cc2=O)cc1 [Cpd 37, 4-(5-chloro-3-oxo-3H-isothiazol-2-ylmethyl)-benzoic acid methyl ester] | 95 | 500 |  | 
O=C(c1ccccc1)c1ccc(Cn2sc(Cl)cc2=O)cc1 [Cpd 35, 5-chloro-2-(4-benzoylbenzyl)-isothiazol-3-one] | 100 | 60 |  | 
O=c1cc(Cl)sn1Cc1ccc(S(=O)(=O)c2ccc(F)cc2)cc1 [Cpd 36, 5-chloro-2-[4-(4-fluoro-benzenesulfonyl)-benzyl]-isothiazol-3-one] | 56 | 500 |  | 
O=c1ccsn1Cc1ccc(-n2cccn2)cc1 [Cpd 58, 2-(4-pyrazol-1-yl)-benzyl-isothiazol-3-one] |  | 1000 |  | 100
O=c1cc(Cl)sn1Cc1nc(-c2ccccc2)sc1Cl [Cpd 52, 5-chloro-2-(5-chloro-2-phenyl-thiazol-4-ylmethyl)-isothiazol-3-one] | 81 | 400 |  | 

Compound | inhibition at 5 µM (Neutrophil LTB4) [%] | IC50 [1] [nM] | inhibition at 1 µM [1] [%] | LTB4 percent inhibition (Neutrophil LTB4) [%]
O=c1ccsn1Cc1csc2ccc(Cl)cc12 [Cpd 20, 2-(5-chloro-benzo[b]thiophen-3-ylmethyl)-isothiazol-3-one] | 88 | 1000 |  | 
O=c1c(Cl)c(Cl)sn1[C@H]1C[C@@H]1c1ccccc1 [Cpd 39, (1S,2R)-4,5-dichloro-2-(2-phenyl-cyclopropyl)-isothiazol-3-one] | 94 | 200 |  | 
O=c1cc(Cl)sn1Cc1ccc(-c2ccco2)cc1 [Cpd 23, 5-chloro-2-(4-furan-2-yl-benzyl)-isothiazol-3-one] | 100 | 300 |  | 
Cc1nc(-c2cccc(-n3sc(Cl)cc3=O)c2)cs1 [Cpd 47, 5-chloro-2-[3-(2-methyl-thiazol-4-yl)-phenyl]-isothiazol-3-one] | 100 | 1000 |  | 
O=c1cc(Cl)sn1Cc1nc(-c2cccs2)sc1Cl [Cpd 61, 5-chloro-2-(5-chloro-2-thiophen-2-yl-thiazol-4-ylmethyl)-isothiazol-3-one] | 100 |  | 49 | 
O=c1ccsn1Cc1csc(-c2ccccc2)n1 [Cpd 54, 2-(2-phenyl-thiazol-4-ylmethyl)-isothiazol-3-one] | 96 | 1500 |  | 
O=c1ccsn1Cc1cccc(-c2ccncc2)c1 [Cpd 50, 2-(3-pyridin-4-yl-benzyl)-isothiazol-3-one] | 100 | 500 |  | 
Cc1nc(-c2cccc(-n3sc(Cl)cc3=O)c2)c(Cl)s1 [Cpd 44, 5-chloro-2-[3-(2-methyl-5-chloro-thiazol-4-yl)-phenyl]-isothiazol-3-one] | 69 | 2000 |  | 
CS(=O)(=O)c1ccc(Cn2sc(Cl)c(Cl)c2=O)cc1 [Cpd 29, 4,5-dichloro-2-(4-methanesulfonyl-benzyl)-isothiazol-3-one] | 64 | 300 |  | 
O=c1cc(Cl)sn1CC1CCCc2ccccc21 (stereo not drawn) [Cpd 4, 5-chloro-2-(1,2,3,4-tetrahydro-naphthalen-1-ylmethyl)-isothiazol-3-one] | 100 | 3300 |  | 
O=c1ccsn1Cc1csc(-c2cccs2)n1 [Cpd 64, 2-(2-thiophen-2-yl-thiazol-4-ylmethyl)-isothiazol-3-one] | 89 |  | 39 | 
O=c1cc(Cl)sn1C1CCc2ccccc21 (stereo not drawn) [Cpd 3, 5-chloro-2-indan-1-yl-isothiazol-3-one] | 86 | 900 |  | 
O=c1cc(Cl)sn1Cc1ccc2ccccc2c1 [Cpd 14, 5-chloro-2-naphthalen-2-ylmethyl-isothiazol-3-one] | 96 | 350 |  | 
C#Cc1ccc(Cn2sc(Cl)cc2=O)cc1 [Cpd 40, 5-chloro-2-(4-ethynyl-benzyl)-isothiazol-3-one] | 100 | 200 |  | 
CCCCCS(=O)(=O)c1ccc(Cn2sc(Cl)cc2=O)cc1 [Cpd 41, 5-chloro-2-[4-(pentane-1-sulfonyl)-benzyl]-isothiazol-3-one] | 100 | 500 |  | 
O=c1c(Cl)c(Cl)sn1Cc1ccc2ccccc2c1 [Cpd 15, 4,5-dichloro-2-naphthalen-2-ylmethyl-isothiazol-3-one] | 75 | 330 |  | 
O=c1ccsn1Cc1csc2ccccc12 [Cpd 12, 2-benzo[b]thiophen-3-ylmethyl-isothiazol-3-one] | 89 | 750 |  | 
O=c1c(Cl)c(Cl)sn1Cc1ccc(-c2csnn2)cc1 [Cpd 24, 4,5-dichloro-2-(4-[1,2,3]thiadiazol-4-yl-benzyl)-isothiazol-3-one] | 52 | 500 |  | 
O=C(c1ccccc1)c1ccc(Cn2sc(Cl)c(Cl)c2=O)cc1 [Cpd 34, 4,5-dichloro-2-(4-benzoylbenzyl)-isothiazol-3-one] | 84 | 400 |  | 
O=c1c(Cl)c(Cl)sn1Cc1ccc(C#Cc2cccc(Cl)c2)cc1 [Cpd 28, 4,5-dichloro-2-[4-(3-chlorophenylethynyl)-benzyl]-isothiazol-3-one] | 100 | 3500 |  | 
O=c1cc(Cl)sn1Cc1ccc(-n2cccn2)cc1 [Cpd 56, 5-chloro-2-(4-pyrazol-1-yl)-benzyl-isothiazol-3-one] |  | 800 |  | 48
O=c1cc(Cl)sn1Cc1ccc(-n2cc(Cl)cn2)cc1 [Cpd 55, 5-chloro-2-[4-(4-chloro-pyrazol-1-yl)-benzyl]-isothiazol-3-one] | 72 | 3200 |  | 
